# Measured values: patent publication US9456589B2, “Elasmobranch-repelling compounds and methods of use” (priority 2005, dated 2016)
# Where “and” joins values, the source holds several entries; their conditions need not be identical. Identical values can stand only once. Entries after “also recorded” stand apart in the source; their conditions may differ. Like-named read-outs stand apart in the source and are kept apart here.
# Tests used:
# lemon sharks [1] = test: Tonic immobility, Micropipette Assay; format: in vivo, N. brevirostris; conditions: for Comments (behavior observed): lemon / juvenile sharks, micropipette
# Protocol: (§1) One bioassay used to observe and measure flight response is the tonic immobility test. Tonic immobility is a state of paralysis that typically occurs when a shark is subject to inversion of its body along the longitudinal axis. This state is called “tonic,” and the shark can remain in this state for up to 15 minutes thereby allowing researchers to observe effects of chemical repellents. The “tonic” state of the shark is first established by releasing seawater in proximity to the “tonic” shark with the same delivery instrument and at the same distance as a “test” repellent compound will be released. Some controls are released with a high flow rate (30 mL/sec) in order to establish that sharks are not awakened by a jet of fluid over their noses. Once behavioral controls are established, a compound or composition that may have a repelling effect is delivered to the shark. If the compound or composition engenders a flight response, the shark will awaken from the tonic state and rapidly attempt to flee the delivered repellent. Using this tonic immobility bioassay researches can quantify the strength of a repellent effect.
# A fourth method of delivery was called the “Micropipette Assay” method of delivery. In this method, a very small dose (fraction of a mL) of a test substance was delivered directly into a shark's mouth. […] A response, such as a cough or other notable action of the shark, was usually noted when effective gustatory repellents were delivered directly into a shark's mouth while in tonic immobility.
# The Micropipette Assay method has not proven to be a particularly effective method of assaying for a flight response in elasmobranchs. The Micropipette Assay method is, nevertheless, an excellent method for specifying that a gustatory response has occurred. It is effective for specifying a gustatory response because the micropipette delivery method allows direct delivery of an entire bolus of test substance into the mouth of the shark being tested.
# Using a microliter syringe or microliter pipette, a bolus of test chemical can be directed precisely into one of the shark's nares, or its mouth. […] Olfactory repellents will terminate tonic immobility almost immediately when injected into a nare of the shark.
# (§2) Lemon, nurse, blacktip and tiger sharks were placed in tonic immobility by inverting the shark's body along its longitudinal axis. […] The “tonic” state of each shark was first established by releasing a control of seawater in proximity to the shark with the same delivery instrument and at the same distance as the chemical repellent would later be delivered. In certain controls, sea water was released with a high flow rate (30 mL/sec) in order to establish that the sharks would not be awakened by a jet of fluid over their noses.
# (§3) Once behavioral controls were established, the chemical repellent was delivered to the shark using the Hd Syringe Assay method, the Syringe 3/5/10 Assay method, the Bite Assay method or the Micropipette Assay method. […] If tonic immobility was terminated, the positive response was denoted as “Y.” If tonic immobility was not terminated but a behavior change within tonic immobility was noted, such as the opening of the mouth or a cough, the response was denoted as an “R” for reduced response. If no behavior change was observed, the negative response was denoted “N.”
# Further because the Micropipette assays were often done serially on the same set of sharks, second and third doses of the repellent over time would be expected to evoke less of a reaction. Nevertheless, the small doses delivered to the shark in the Micropipette assay provide important data on whether a compound is a gustatory stimulant because the small dose may be delivered directly into the mouth of the shark. This eliminates any olfactory response that might be acting in concert with a gustatory response to terminate tonic immobility.
# juvenile sharks = test: Initial tonic immobility assays, mouth delivery by micropipette or syringe; format: in vivo; conditions: introduced to the mouth using a micropipette or syringe
# [2] = tested on: sharks (lemon, nurse, tiger pooled); test: Tonic immobility, Hd Syringe Assay, summary over species; format: in vivo; conditions: species pooled
# Protocol: as §1
# In Hd-Syringe Assays, the 3-methylbutanal was delivered to the shark's mouth and nares using a 3 mL hypodermic syringe fitted with a 22 gauge needle. The needle was held within 3 inches of the shark's mouth and the test repellent was slowly released from the syringe with a very fine plume in the water column. Any response was denoted. If a response occurred during a measurable time after delivery of the test chemical, the time between delivery and response was noted. If a response occurred immediately or the response occurred before a measurable time could be established, no time to response was noted.
# [3] = tested on: sharks (lemon, nurse, blacknose, blacktip pooled); test: Tonic immobility, Syringe Assay, summary over species; format: in vivo
# Protocol: as §1
# (§4) A second delivery method called the “Syringe Assay” method delivered a dose of 60 mL or more of a test chemical repellent from at least one foot, and up to as many as five feet, from a shark. The distance of delivery was determined based on the strength of the water current in the direction of the shark. Time from delivery of the test substance until response was observed, measured and recorded. The “Syringe” method allows a researcher to observe how a diffusing and diluting cloud of test chemical repellent affects the shark's behavior when the shark encounters the delivered cloud of test substance. The “Syringe” method requires relatively large doses because of the diffusion of the cloud over time and distance. Time from delivery to response is related to the size of the bolus delivered from the syringe, distance of the shark from the syringe and water current.
# (§5) In the Syringe assay about 60 mL or more of valeraldehyde was delivered from one to as many as five feet from the shark depending on the water current. […] Time from delivery to response was related to the size of the bolus delivered from the syringe, distance of the shark from the syringe and water current.
# lemon sharks [4] = test: Tonic immobility, Syringe Assay; format: in vivo, N. brevirostris
# Protocol: as §1, §4, §2, §3, §5
# nurse sharks = test: Tonic immobility, Syringe Assay; format: in vivo, C. cirratum
# sharks (species pooled) = test: Tonic immobility, total of delivery methods not including Micropipette assays; format: in vivo; conditions: species and delivery methods pooled
# Protocol: as §1
# Table 1, which summarizes the data in Tables 14 and 15, evidences the gustatory repellent characteristics of methylbutanals. In 35 of 36 assays (combining columns “Y” and “R” under the column labeled “Total (Not including Micropipette Assays)” to arrive at a 97% effectiveness rate), including assays on lemon, nurse, tiger and blacktip sharks, the gustatory repellent activity of 3-methylbutanal was established. In 81% of assays, tonic immobility was fully terminated. […] In only a single assay did a shark not respond to treatment with 3-methylbutanal.
# [5] = tested on: Caribbean reef sharks and blacknose sharks; test: Cage Assay on free-swimming sharks; format: in vivo, C. perezii, C. acronotus; conditions: for Cage Y (repellent activity), trials of trials: 500 mL delivered at baited cage; for number of strikes at the baited cage / return of sharks / interactions with the baited cage after 10 minutes: 500 mL of 50% w/w in diethylene glycol monoethyl ether
# Source text: Another bioassay used to observe a flight response in sharks is a free-swimming test using a small metal cage containing bait. This assay is referred to as a “Cage Assay.” The cage with bait is suspended below a float in the water column. A ⅜ inch diptube is secured from the cage to the boat and carried chemical compounds to the proximity of the cage where the test substances were delivered. Sharks are drawn to the vicinity of the boat with chum. Sharks are observed to immediately bump and bite at the cage wherein bait was contained. The number of interactions between the sharks and the cage are recorded over time. Test chemical repelling substance is delivered to the vicinity of the cage through the diptube. The frequency of bumps and strikes by sharks against the cage is then monitored and recorded. If bumps and strikes by sharks cease for a period of time, that time period is also recorded. In the free-swim ring tests disclosed herein using a baited cage, the volume of test chemical repellent delivered into the vicinity of the cage was about 500 mL.
# A series of chemical repellent tests on free-swimming Caribbean reef sharks (C. perezii) and blacknose sharks (C. acronotus) was performed in tropical waters. A small metal cage containing bait was suspended below a float in the water column. A ⅜″ ID HDPE diptube was secured from the cage to the boat, so that chemical compounds could be transported to the cage's proximity. Sharks were stimulated using bunker chum in bags.
# The number of interactions was recorded using an underwater pole-camera.
compound,measurement,setting,value
"Cc1cccnc1N [2-amino-3-picoline 95%, 2-amino-3-picoline]",Comments (behavior observed),lemon sharks [1],violent seizure; also recorded: VIOLENT/SEIZURE
same,Comments (behavior observed),lemon sharks [1]; listed as aminopicoline,violent responses
same,Micropipette assays terminating tonic immobility,lemon sharks [1]; lemon sharks,one
same,Micropipette assays with a response,lemon sharks [1]; lemon sharks,two of two
Cc1ncccc1N [3-amino-2-picoline],result of initial tonic immobility assays,juvenile sharks,terminated tonic immobility
Cc1cccnc1 [3-methylpyridine],result of initial tonic immobility assays,juvenile sharks,terminated tonic immobility
same,"Hd-Syringe Y (termination of tonic immobility), trials of trials",[2],three of three and 3/3
"CCCC=O [Butyraldehyde, butyraldehyde]","Syringe Y (termination of tonic immobility), trials of trials",[3],4/4
same,"Syringe Y (termination of tonic immobility), trials of trials",[3]; listed as butyraldehyde,4 of 5
same,Syringe assays terminating tonic immobility (text),lemon sharks [4],resulting in termination of tonic immobility
same,Syringe assays terminating tonic immobility (text),nurse sharks,two
same,Syringe assays with no response,nurse sharks,one
same,"Total (Not including Micropipette assays / Effective Delivery Methods) Y, trials of trials",sharks (species pooled),4/4
same,"Total Y, percent of trials",sharks (species pooled),100%
"CC(C)c1ccc(C=O)cc1 [Cuminaldehyde, cuminaldehyde]","Syringe Y (termination of tonic immobility), trials of trials",[3],1/1
same,"Syringe Y (termination of tonic immobility), trials of trials",[3]; listed as cuminaldehyde,terminated
same,Syringe assays terminating tonic immobility (text),lemon sharks [4],resulted in termination of tonic immobility
same,"Total (Not including Micropipette assays / Effective Delivery Methods) Y, trials of trials",sharks (species pooled),1/1
"CC(=O)/C=C/C1C(C)=CCCC1(C)C (stereo not drawn) [Ionone, alpha-ionone]","Cage Y (repellent activity), trials of trials",[5],1/1
same,number of strikes at the baited cage,[5]; listed as alpha-ionone,reduced
same,return of sharks / interactions with the baited cage after 10 minutes,[5]; listed as alpha-ionone,interactions continued after a 10 minute period
same,number of strikes at the baited cage,[5]; listed as ionone,decrease in the number of strikes
same,return of sharks / interactions with the baited cage after 10 minutes,[5]; listed as ionone,lull in feeding for 10 minutes
"O=Cc1ccc2c(c1)OCO2 [Piperonal, piperonal]","Cage Y (repellent activity), trials of trials",[5],1/1
same,number of strikes at the baited cage,[5],decrease in the number of strikes; also recorded: dramatically reduced
same,return of sharks / interactions with the baited cage after 10 minutes,[5],did not return; also recorded: interactions ceased
same,"Total (Not including Micropipette assays / Effective Delivery Methods) Y, trials of trials",sharks (species pooled),1/1
"Cc1ccc(C=O)cc1 [Tolualdehyde, p-tolualdehyde]","Syringe Y (termination of tonic immobility), trials of trials",[3],1/1
same,Syringe assays terminating tonic immobility (text),lemon sharks [4]; listed as p-tolualdehyde,termination of tonic immobility
same,Syringe assays terminating tonic immobility (text),lemon sharks [4]; listed as tolualdehyde,terminated
"COc1cc(CCC(C)=O)ccc1O [Zingerone, zingerone]","Cage Y (repellent activity), trials of trials",[5],1/1
same,number of strikes at the baited cage,[5],decrease in the number of strikes; also recorded: reduced
same,return of sharks / interactions with the baited cage after 10 minutes,[5],lull in feeding for 10 minutes; also recorded: interactions continued after a 10 minute period
"Cc1ccccn1 [alpha-picoline, 2-methylpyridine]",result of initial tonic immobility assays,juvenile sharks,terminated tonic immobility
"Cc1cc(=O)n(-c2ccccc2)n1C [antipyrine solution, antipyrine]",Micropipette assays with a response,lemon sharks [1]; lemon sharks,a response was observed; also recorded: evoked a response in one assay
same,Micropipette assays with no response,lemon sharks [1]; lemon sharks,no response; also recorded: did not evoke a response in another
Cc1cc(C)nc(C)c1 [collidine],result of initial tonic immobility assays,juvenile sharks,terminated tonic immobility
CCCCCCCCCC=O [decanal],"Syringe Y (termination of tonic immobility), trials of trials",[3],1/1
same,Syringe assays terminating tonic immobility (text),lemon sharks [4],terminated
same,Syringe assays terminating tonic immobility (text),nurse sharks,terminated
"Cc1ccncc1 [gamma-picoline, 4-methylpyridine]",result of initial tonic immobility assays,juvenile sharks,terminated tonic immobility
CCCCCCC=O [heptanal],"Syringe N (no response), trials of trials",[3],no response and 1/1
same,Syringe assays with no response,lemon sharks [4],no response
Cc1cccc(C)n1 [lutidine],result of initial tonic immobility assays,juvenile sharks,terminated tonic immobility
CC(=O)C=C(C)C [mesityl oxide],"Syringe Y (termination of tonic immobility), trials of trials",[3],1/1
same,Syringe assays terminating tonic immobility (text),lemon sharks [4],terminated
CCCCCCCCC=O [nonanal],"Syringe Y (termination of tonic immobility), trials of trials",[3],1/1
same,Syringe assays terminating tonic immobility (text),lemon sharks [4],terminated
CCCCCCCC=O [octanal],"Syringe Y (termination of tonic immobility), trials of trials",[3],1/1
same,Syringe assays terminating tonic immobility (text),lemon sharks [4],terminated
COc1ccc(C=O)cc1OC [veratraldehyde],"Syringe N (no response), trials of trials",[3],one of seven and 1/7
same,"Syringe Y (termination of tonic immobility), trials of trials",[3],six of seven and six of six and 6/7
same,Syringe assays with no response,nurse sharks,no response
same,Micropipette assays with a response,lemon sharks [1]; lemon sharks,eight of twelve
same,Micropipette assays with no response,lemon sharks [1]; lemon sharks,four
